Measurements: PubChem BioAssay (NCI)
Values joined by “and” are separate entries in the source; they are usually repeats but may differ in a detail not shown here. Identical values can stand only once.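 A five-concentration, 48-hour dose response in 96-well plates underlies each endpoint, interpolated linearly between surrounding concentrations. GI50 is the concentration that inhibits growth by half. TGI: total growth inhibition.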

What was measured:
Assay in all cases: DTP human tumour cell line panel, 48 h
U251 CNS = test system: U251 CNS
SK-MEL-2 melanoma = test system: SK-MEL-2 melanoma
SW-620 colon = test system: SW-620 colon
SN12C renal = test system: SN12C renal
UACC-257 melanoma = test system: UACC-257 melanoma
TK-10 renal = test system: TK-10 renal
SR leukemia = test system: SR leukemia
MDA-MB-231 breast = test system: MDA-MB-231 breast
CCRF-CEM leukemia = test system: CCRF-CEM leukemia
OVCAR-8 ovarian = test system: OVCAR-8 ovarian

Structure (SMILES) | GI50 (U251 CNS) | TGI (U251 CNS) | GI50 (SK-MEL-2 melanoma) [µM] | TGI (SK-MEL-2 melanoma) | GI50 (SW-620 colon) | TGI (SW-620 colon) | GI50 (SN12C renal) [µM] | TGI (SN12C renal) | GI50 (UACC-257 melanoma) | TGI (UACC-257 melanoma) | GI50 (TK-10 renal) [µM] | TGI (TK-10 renal) [µM] | GI50 (SR leukemia) [nM] | TGI (SR leukemia) [µM] | GI50 (MDA-MB-231 breast) [µM] | TGI (MDA-MB-231 breast) [µM] | GI50 (CCRF-CEM leukemia) | TGI (CCRF-CEM leukemia) | GI50 (OVCAR-8 ovarian) | TGI (OVCAR-8 ovarian)
CC/C(=C(/c1ccc(O)cc1)c1ccc(OCCN)cc1)c1ccccc1 | 1820 nM | 3.86 µM | 3.6 | 8.55 µM | 1870 nM | 3.91 µM | 3.02 | 9.67 µM | 10.5 µM | 22.7 µM | 4.91 | 10.2 | 1780 | 4.53 | 1.98 | 5.23 | 2870 nM | 8.77 µM | 3.12 µM | 9.94 µM
C[C@]12CC[C@@H]3c4cc(OC(F)F)c(OS(N)(=O)=O)cc4CC[C@H]3[C@@H]1CC[C@@H]2OS(N)(=O)=O | 1830 nM | 20.2 µM | 2.79 | 24.9 µM | 439 nM | 20.7 µM | 2.07 | 21.4 µM | 5.87 µM | 24.8 µM | 13.6 | 49.1 | 441 | > 100 | 3.05 | 28.2 | – | > 70.7 µM | 1.74 µM | > 59 µM
N=C(N)SCc1c2ccccc2c(CSC(=N)N)c2ccccc12 | 3130 nM | 26.7 µM | 18 | 41.3 µM | 3750 nM | 19.7 µM | 3 | 25.7 µM | 23.2 µM | 45 µM | 22.3 | 45.3 | 408 | 3.03 | 12 | 45.1 | 4700 nM | 36.1 µM | 6.49 µM | 50.4 µM
N=N/C(=C\c1c(O)[nH]c2ccccc12)c1ccccc1 | – | > 83.9 µM | – | > 100 µM | – | > 100 µM | – | > 94.7 µM | – | > 100 µM | – | > 100 | – | 97.5 | – | > 76.5 | – | 25.2 µM | – | > 57.5 µM
c1ccc2cc(NCNc3ccc4ccccc4c3)ccc2c1 | – | 93.6 µM | – | 32.1 µM | – | > 100 µM | – | 25.8 µM | – | 20.9 µM | – | > 67.6 | – | 31.4 | – | 38.9 | – | 62.6 µM | – | 58.2 µM
N#Cc1c(N2CCOCC2)nc(=S)[nH]c1-c1ccccc1 | 60100 nM | > 100 µM | 4.5 | > 100 µM | 74200 nM | > 100 µM | 19 | > 100 µM | 49.8 µM | > 100 µM | 20.7 | > 100 | 29000 | > 100 | 7.86 | > 100 | 30900 nM | > 100 µM | 39.2 µM | > 100 µM
O=C(/C(=C/c1ccc([N+](=O)[O-])cc1)SCc1ccc(Cl)cc1)c1ccc(F)cc1 | 1740 nM | 3.17 µM | 7.9 | 23.1 µM | 1710 nM | 4.91 µM | 2.4 | 7.43 µM | 11.5 µM | 26.1 µM | 12.9 | 29.5 | 2010 | > 26.5 | 2.14 | 5.98 | 1970 nM | > 100 µM | 3.17 µM | 12.7 µM
O=[N+]([O-])c1ccc(C2CC(c3ccccc3)=Nc3ccccc3S2)cc1 (configuration not stated) | 4700 nM | > 100 µM | > 100 | > 100 µM | 2750 nM | 11.1 µM | > 100 | > 100 µM | > 100 µM | > 100 µM | > 100 | > 100 | 3590 | > 100 | > 100 | > 100 | 4660 nM | > 100 µM | 52.4 µM | > 100 µM
CCNC(=O)Nc1ccc(Oc2ccnc3ccc4c(ccn4C)c23)cc1 | 20600 nM | 44.7 µM | 45.8 | > 100 µM | > 100000 nM | > 100 µM | 20.9 | 43.8 µM | 28.4 µM | 86.2 µM | 33.5 | 99.3 | 12100 | > 100 | 26.3 | 62.8 | 18900 nM | > 100 µM | 23 µM | > 100 µM
COc1cccc(/C=N/NC(=O)c2ccccc2N2CCCC2)c1O | 4270 nM | > 100 µM | 54 | > 100 µM | 4080 nM | > 100 µM | 15.5 | > 100 µM | 3.05 µM | > 100 µM | 5.38 | > 100 | 4200 | > 100 | 7.31 | > 100 | 712 nM | > 100 µM | 5.49 µM | > 100 µM
O=C1NC2C(=CC(O)C(O)C2O)c2cc3c(cc21)OCO3 (configuration not stated) | 325 nM and 68.8 nM | 0.437 µM and 3.07 µM | 0.305 | 2.95 µM and 1.43 µM | 412 nM and 199 nM | 4.07 µM and 19.9 µM | 0.156 | 2.59 µM and 2.29 µM | 0.47 µM and 0.304 µM | 2.83 µM and 2.86 µM | 0.917 | 4.11 | – | 0.566 | – | 2.39 | 154 nM and 115 nM | 0.875 µM and 3.55 µM | 0.344 µM and 0.171 µM | 2.25 µM and 1.72 µM
